The values below are quoted from earlier work in patent publication US20060194715A1, “Proteins encoded by ble genes and antibiotics from the bleomycin family” (priority 2002, published 2006).

Values joined by “and” are separate entries in the source; they are usually repeats but may differ in a detail not shown here. Equal entries are not always repeated. Where two headings read alike, the source gives them in different places.

The target in this data set is T1, Sh ble protein (Streptoalloteichus hindustanus, UniProt P17493).
T1 sequence (P17493 1-124): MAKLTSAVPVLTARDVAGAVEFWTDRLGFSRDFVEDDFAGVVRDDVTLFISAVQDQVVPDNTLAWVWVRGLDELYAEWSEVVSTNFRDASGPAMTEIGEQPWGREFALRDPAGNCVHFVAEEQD

On to bleomycin, for which the Kd by setting is: (first bleomycin molecule bound, read-out: first affinity (single molecule of bleomycin bound to Sh ble dimer)) around 600 nM; (second bleomycin molecule bound, read-out: second affinity (two molecules of bleomycin bound to Sh ble dimer)) ~100 nM and ≤ 100 nM.
